Reference: US6103761A, “Agents acting at cholecystokinin receptors” (Warner-Lambert Company, priority 1994, dated 2000)

Biological target: T1, CCK-B receptor (Mus musculus, UniProt P56481)
T1 construct: from tissue; host or cells: cerebral cortex membranes of male CFLP mice
T1 sequence (P56481 1-453): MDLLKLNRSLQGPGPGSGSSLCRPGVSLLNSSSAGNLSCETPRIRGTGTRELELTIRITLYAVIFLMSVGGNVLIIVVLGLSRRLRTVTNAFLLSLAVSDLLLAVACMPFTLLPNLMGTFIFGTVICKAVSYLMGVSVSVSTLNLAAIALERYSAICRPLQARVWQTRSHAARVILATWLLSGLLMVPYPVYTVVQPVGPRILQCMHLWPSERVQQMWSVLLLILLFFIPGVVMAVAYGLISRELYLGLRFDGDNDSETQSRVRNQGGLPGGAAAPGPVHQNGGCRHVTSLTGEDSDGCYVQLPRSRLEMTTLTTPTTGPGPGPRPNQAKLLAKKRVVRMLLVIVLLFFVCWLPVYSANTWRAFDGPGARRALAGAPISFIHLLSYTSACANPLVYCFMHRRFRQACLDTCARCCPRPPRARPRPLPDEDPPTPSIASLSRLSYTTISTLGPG
Assay: Displacement of tritiated-pentagastrin binding to mouse cerebral cortical membranes (CCK receptor binding)
Design: species or system male CFLP mice
Conditions: displacement of 2 nM tritiated-pentagastrin, Ki by Cheng-Prusoff equation, read-out: Ki, Binding Affinity CCK-B
Description: The biological activity of compounds of the present invention was evaluated employing an initial screening test which rapidly and accurately measured the binding of the tested compound to known CCK receptor sites. […] (See Hays, et al., Neuropeptides 1980;1:53-62; and Satuer, et al., Science 1980;208:1155-6.)
In this screening test, the cerebral cortices taken from male CFLP mice weighing between 30-40 g were dissected on ice, weighed, and homogenized in 10 volumes of 50 mM Tris-HCl buffer (pH 7.4 at 0-4° C.). The resulting suspension was centrifuged, the supernate was discarded, and the pellet was washed by resuspension in Tris-HCl buffer followed by recentrifugation. The final pellet was resuspended in 20 volumes of […] buffer (pH 7.2 at 23° C.) containing 130 mM NaCl, […], […], […], 5 mg/mL bovine albumin, and bacitracin (0.25 mg/mL).
In saturation studies, cerebral cortical membranes were incubated at 23° C. for 120 minutes in a final volume of 500 μL of Hepes incubation buffer (pH 7.2) together with 0.2-20 nM tritiated-pentagastrin (Amersham International, England).
In the displacement experiments, membranes were incubated with a single concentration (2 nM) of ligand, together with increasing concentrations ([…]) of competitive test compound. In each case, the nonspecific binding was defined as that persisting in the presence of the unlabeled octapeptide CCK26-33 (10^-6 M).
Following incubation, radioactivity bound to membranes was separated from that free in solution by rapid filtration through Whatman GF/B filters and washed three times with 4 mL of ice cold Tris-HCl buffer. Filters from samples incubated with tritiated-pentagastrin were placed in polyethylene vials with 4 mL of scintillation cocktail, and the radioactivity was estimated by liquid scintillation spectrometry (efficiency 47%-52%).
The specific binding to CCK receptor sites was defined as the total bound tritiated-pentagastrin minus the amount of tritiated-pentagastrin bound in the presence of 10^-6 octapeptide, CCK26-33.
Saturation curves for specific tritiated-pentagastrin binding to mouse cortical membranes were analyzed by the methods of Scatchard (Ann New York Acad Sci 1949;51:660-72, and Hill, J Physiol 1910;40:IV-VIII), to provide estimates for the maximum number of binding sites (Bmax) and the equilibrium dissociation constant ([…]).
In displacement experiments, inhibition curves were analyzed by either logit-log plots or the iterative curve fitting computer program ALLFIT (DeLean, Munson, Redbard, 1978) to provide estimates of the IC50 and nH (apparent Hill coefficient) values). (IC50 values were defined as the concentration of test compound required to produce 50% inhibition of specific binding.)
The inhibition constant (Ki) of the test compound was then calculated according to the Cheng-Prusoff equation: [formula] where [L] is the concentration of radiolabel and Ka is the equilibrium dissociation constant.

| SMILES | Ki [nM] |
| --- | --- |
| O=C(Nc1ccc(Cl)cc1)N[C@H](c1ccccc1)[C@H](NC(=O)Nc1ccc(C(F)(F)F)cc1)c1ccccc1 (relative stereo) [Example 10, [R-(R*,R*)] and [S-(R*,R*)]-N-(4-chlorophenyl)-N'-[1,2-diphenyl-2-[[[[4-(trifluoromethyl)phenyl]amino]-carbonyl]amino]ethyl]-urea] | 371 |
| Cc1ccc(S(=O)(=O)NC(=O)N[C@H](c2ccccc2)[C@H](NC(=O)Nc2ccc(C(F)(F)F)cc2)c2ccccc2)cc1 (relative stereo) [Example 14, [S-(R*,R*)] and [R-(R*,R*)]-N-[[[1,2-diphenyl-2-[[[[4-(trifluoromethyl)phenyl]amino]carbonyl]amino]-ethyl]amino]carbonyl]-4-methyl-benzenesulfonamide] | 188 |
| O=C(Nc1ccc([N+](=O)[O-])cc1)N[C@H](c1ccccc1)[C@H](NC(=O)Nc1ccc(C(F)(F)F)cc1)c1ccccc1 (relative stereo) [Example 15, [S-(R*,R*)] and [R-(R*,R*)]-N-[1,2-diphenyl-2-[[[[4-(trifluoromethyl)phenyl]amino]carbonyl]amino]-ethyl]-N'-(4-nitrophenyl)urea] | 309 |
| Cc1ccc(S(=O)(=O)NC(=O)N[C@H](c2ccccc2)[C@H](NC(=O)Nc2ccc(Cl)cc2)c2ccccc2)cc1 (relative stereo) [Example 46, [R-(R*,R*)] and [S-(R*,R*)]-N-[[[2-[[[(4-chlorophenyl)-amino]carbonyl]amino]-1,2-diphenylethyl]amino]-carbonyl]-4-methyl-benzenesulfonamide] | 188 |
| O=C(Nc1ccc(Cl)cc1)N[C@H](c1ccccc1)[C@H](NC(=O)NS(=O)(=O)c1ccccc1)c1ccccc1 (relative stereo) [Example 47, [R-(R*,R*)] and [S-(R*,R*)]-N-[[[2-[[[4-chlorophenyl)-amino]carbonyl]amino]-1,2-diphenylethyl]amino]-carbonyl]benzenesulfonamide] | 290 |
| Cc1ccc(NC(=O)N[C@H](c2ccccc2)[C@H](NC(=O)NS(=O)(=O)c2ccc(C)cc2)c2ccccc2)cc1 (relative stereo) [Example 54, [R-(R*,R*)] and [S-(R*,R*)]-4-methyl-N-[[[2-[[[(4-methylphenyl)amino]carbonyl]amino]-1,2-diphenylethyl]amino]carbonyl]benzenesulfonamide] | 178 |
| Cc1ccc(S(=O)(=O)NC(=O)N[C@@H](c2ccccc2)[C@@H](NC(=O)Nc2ccc(Cl)cc2)c2ccccc2)cc1 [Example 64, (+)-[S-(R*,R*)]-N-[[[2-[[[(4-chlorophenyl)amino]-carbonyl]amino]-1,2-diphenylethyl]amino]carbonyl]-4-methyl-urea] | 93 |
| O=C(Nc1ccc(Cl)cc1)N[C@@H](c1ccccc1)[C@@H](NC(=O)Nc1ccc(C(F)(F)F)cc1)c1ccccc1 [Example 65, (+)-[S-(R*,R*)]-N-(4-chlorophenyl)-N'-[1,2-diphenyl]-2-[[[[4-(trifluoromethyl)phenyl]amino]carbonyl]amino]-ethyl]urea] | 293 |
